For one molecule, remaining binding results are on record in paper PMC10174618, “Monoterpenoid aryl hydrocarbon receptor allosteric antagonists protect against ultraviolet skin damage in female mice” (Nature Communications, 2023).

Test in all cases: biochemical
Holding throughout (parameters): KINOMEscan scanMAX active site-directed competition binding assay, percent of control, 468 kinases
Common to all, as to conditions: competition binding, percent of control

The target of one assay is T1, ADCK4 (Homo sapiens, UniProt Q96D53).
T1 construct: gene COQ8B
T1 sequence (Q96D53 whole entry): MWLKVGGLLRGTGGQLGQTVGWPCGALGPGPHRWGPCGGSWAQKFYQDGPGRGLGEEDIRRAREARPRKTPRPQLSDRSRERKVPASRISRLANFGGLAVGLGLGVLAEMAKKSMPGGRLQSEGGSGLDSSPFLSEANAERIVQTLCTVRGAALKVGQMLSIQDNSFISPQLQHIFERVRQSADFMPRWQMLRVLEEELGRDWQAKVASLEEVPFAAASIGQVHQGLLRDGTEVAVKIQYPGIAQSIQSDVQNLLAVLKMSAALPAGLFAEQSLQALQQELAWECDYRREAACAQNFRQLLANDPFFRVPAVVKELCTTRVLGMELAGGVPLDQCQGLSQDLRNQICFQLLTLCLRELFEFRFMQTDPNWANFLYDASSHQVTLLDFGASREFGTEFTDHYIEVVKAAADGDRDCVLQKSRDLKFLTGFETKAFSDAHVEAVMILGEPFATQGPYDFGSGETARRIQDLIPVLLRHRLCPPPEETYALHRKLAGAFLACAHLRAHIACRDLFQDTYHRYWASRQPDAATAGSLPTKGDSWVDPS
The essentials:
(§1)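 Single-concentration screen (100 μM S-carvone) in a competition binding panel of 468 human kinases (KINOMEscan scanMAX); results given as percent of control, hit cutoff 35%.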

Another assay addresses T2, ASK2 (Homo sapiens, UniProt O95382).
T2 construct: gene MAP3K6
The method in brief: as §1

A further assay deals with AURKA (Homo sapiens, UniProt O14965). The essentials: as §1
In a further assay the target is CASK (Homo sapiens, UniProt O14936). The method in brief: as §1
In the next assay the target is T3, CDK11 (Homo sapiens, UniProt Q9BWU1).
T3 construct: gene CDK19
The method in brief: as §1

Another assay concerns the target T4, CDK4-cyclinD3 (Homo sapiens, UniProt P11802).
T4 construct: cyclinD3
The essentials:
as §1

For another assay, the target named is CHEK2 (Homo sapiens, UniProt O96017). The essentials:
as §1

In a further assay the target is CSF1R-autoinhibited (Homo sapiens, UniProt P07333). The method in brief: as §1
CSF1R-autoinhibited, sequence (P07333 whole entry): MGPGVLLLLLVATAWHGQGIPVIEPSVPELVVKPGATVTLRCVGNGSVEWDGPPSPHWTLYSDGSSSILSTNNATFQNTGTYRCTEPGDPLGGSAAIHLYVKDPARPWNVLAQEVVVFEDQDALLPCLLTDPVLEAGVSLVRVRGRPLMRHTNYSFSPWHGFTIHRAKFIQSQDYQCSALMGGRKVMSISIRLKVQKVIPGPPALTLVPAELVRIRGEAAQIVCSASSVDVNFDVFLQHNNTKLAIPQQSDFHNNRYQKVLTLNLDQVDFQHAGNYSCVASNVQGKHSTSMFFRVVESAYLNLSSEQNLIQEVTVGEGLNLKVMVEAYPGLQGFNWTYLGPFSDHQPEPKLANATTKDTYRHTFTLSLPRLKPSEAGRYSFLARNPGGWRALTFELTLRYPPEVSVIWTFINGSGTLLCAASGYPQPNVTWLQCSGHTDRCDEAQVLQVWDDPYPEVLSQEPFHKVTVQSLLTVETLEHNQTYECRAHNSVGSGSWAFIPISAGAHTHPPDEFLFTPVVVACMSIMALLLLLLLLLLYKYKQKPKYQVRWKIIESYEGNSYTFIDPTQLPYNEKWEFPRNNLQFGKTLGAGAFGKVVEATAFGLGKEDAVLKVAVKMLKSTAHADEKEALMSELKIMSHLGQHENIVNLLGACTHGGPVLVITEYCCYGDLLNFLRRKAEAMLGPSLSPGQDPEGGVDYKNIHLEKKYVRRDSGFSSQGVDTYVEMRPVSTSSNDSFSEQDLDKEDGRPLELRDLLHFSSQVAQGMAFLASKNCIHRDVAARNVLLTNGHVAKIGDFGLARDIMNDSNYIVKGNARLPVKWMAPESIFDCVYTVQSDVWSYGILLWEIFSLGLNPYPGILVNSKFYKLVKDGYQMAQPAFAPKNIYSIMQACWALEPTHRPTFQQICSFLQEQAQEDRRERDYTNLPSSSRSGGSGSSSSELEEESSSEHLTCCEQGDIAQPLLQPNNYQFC
Another assay deals with CSNK1G1 (Homo sapiens, UniProt Q9HCP0). The method in brief: as §1
The target of a further assay is DYRK1B (Homo sapiens, UniProt Q9Y463). The essentials: as §1
The target of a further assay is T5, ERK3 (Homo sapiens, UniProt Q16659).
T5 construct: gene MAPK6
The essentials: as §1

For a further assay, the target named is GRK7 (Homo sapiens, UniProt Q8WTQ7). The essentials: as §1
GRK7, sequence (Q8WTQ7 whole entry): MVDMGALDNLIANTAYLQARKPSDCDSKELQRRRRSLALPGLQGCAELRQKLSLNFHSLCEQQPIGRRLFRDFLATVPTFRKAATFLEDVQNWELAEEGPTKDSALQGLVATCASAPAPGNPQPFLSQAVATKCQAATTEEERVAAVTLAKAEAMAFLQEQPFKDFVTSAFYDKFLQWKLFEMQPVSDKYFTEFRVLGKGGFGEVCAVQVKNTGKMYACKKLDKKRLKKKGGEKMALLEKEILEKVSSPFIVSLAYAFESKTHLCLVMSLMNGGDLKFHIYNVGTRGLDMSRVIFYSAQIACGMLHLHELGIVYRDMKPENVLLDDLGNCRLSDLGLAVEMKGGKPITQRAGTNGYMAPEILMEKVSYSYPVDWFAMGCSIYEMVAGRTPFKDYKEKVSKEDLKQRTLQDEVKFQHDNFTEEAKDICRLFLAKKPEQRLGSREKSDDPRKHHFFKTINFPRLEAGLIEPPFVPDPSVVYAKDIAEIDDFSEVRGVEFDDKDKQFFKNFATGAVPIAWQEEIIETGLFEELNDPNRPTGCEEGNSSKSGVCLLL
A further assay has as its target GSK3B (Homo sapiens, UniProt P49841). The essentials:
as §1

The next assay has as its target T6, IKK-alpha (Homo sapiens, UniProt O15111).
T6 construct: gene CHUK
The method in brief:
as §1

The next assay has as its target NEK6 (Homo sapiens, UniProt Q9HC98). The method in brief: as §1
The target of a further assay is PIM3 (Homo sapiens, UniProt Q86V86). The method in brief: as §1
A further assay deals with SIK2 (Homo sapiens, UniProt Q9H0K1). The essentials:
as §1

In a further assay the target is T7, SNARK (Homo sapiens, UniProt Q9H093).
T7 construct: gene NUAK2
T7 sequence (Q9H093 whole entry): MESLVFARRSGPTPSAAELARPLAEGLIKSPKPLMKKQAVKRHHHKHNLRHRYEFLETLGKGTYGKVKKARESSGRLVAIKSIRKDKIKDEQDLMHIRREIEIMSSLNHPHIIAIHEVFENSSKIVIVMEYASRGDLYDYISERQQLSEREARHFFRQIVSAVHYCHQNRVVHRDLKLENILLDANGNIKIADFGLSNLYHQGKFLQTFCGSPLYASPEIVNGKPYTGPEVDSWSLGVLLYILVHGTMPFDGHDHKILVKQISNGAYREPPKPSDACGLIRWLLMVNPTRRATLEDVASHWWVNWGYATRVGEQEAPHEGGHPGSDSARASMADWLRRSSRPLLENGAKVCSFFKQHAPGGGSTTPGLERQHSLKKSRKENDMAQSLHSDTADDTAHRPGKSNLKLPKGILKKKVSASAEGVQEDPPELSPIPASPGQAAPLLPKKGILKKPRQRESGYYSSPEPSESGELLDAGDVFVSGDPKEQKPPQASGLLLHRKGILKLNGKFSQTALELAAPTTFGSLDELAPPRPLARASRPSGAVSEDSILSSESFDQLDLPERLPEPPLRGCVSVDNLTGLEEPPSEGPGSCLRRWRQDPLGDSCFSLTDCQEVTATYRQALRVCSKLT
The method in brief: as §1

The target of the next assay is SNRK (Homo sapiens, UniProt Q9NRH2). The method in brief: as §1
In another assay the target is T8, TAK1 (Homo sapiens, UniProt O43318).
T8 construct: gene MAP3K7
The method in brief:
as §1

Another assay deals with TRPM6 (Homo sapiens, UniProt Q9BX84). The essentials:
as §1

Another assay concerns the target VRK2 (Homo sapiens, UniProt Q86Y07). The method in brief: as §1

VRK2, sequence (Q86Y07 whole entry): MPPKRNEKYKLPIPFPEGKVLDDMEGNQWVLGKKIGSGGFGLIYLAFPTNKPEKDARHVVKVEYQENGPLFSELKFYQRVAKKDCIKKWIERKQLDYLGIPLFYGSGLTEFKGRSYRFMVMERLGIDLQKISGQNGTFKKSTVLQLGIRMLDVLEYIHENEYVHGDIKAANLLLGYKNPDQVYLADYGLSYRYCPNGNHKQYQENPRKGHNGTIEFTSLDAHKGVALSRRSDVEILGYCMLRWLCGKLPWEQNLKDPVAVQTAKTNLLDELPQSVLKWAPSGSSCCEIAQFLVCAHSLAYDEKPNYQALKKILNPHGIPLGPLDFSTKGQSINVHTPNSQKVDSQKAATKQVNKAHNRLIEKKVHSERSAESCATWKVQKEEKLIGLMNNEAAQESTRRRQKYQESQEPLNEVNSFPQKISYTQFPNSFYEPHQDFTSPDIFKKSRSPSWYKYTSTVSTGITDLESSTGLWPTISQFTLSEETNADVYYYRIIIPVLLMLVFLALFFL
T6 sequence (O15111 whole entry): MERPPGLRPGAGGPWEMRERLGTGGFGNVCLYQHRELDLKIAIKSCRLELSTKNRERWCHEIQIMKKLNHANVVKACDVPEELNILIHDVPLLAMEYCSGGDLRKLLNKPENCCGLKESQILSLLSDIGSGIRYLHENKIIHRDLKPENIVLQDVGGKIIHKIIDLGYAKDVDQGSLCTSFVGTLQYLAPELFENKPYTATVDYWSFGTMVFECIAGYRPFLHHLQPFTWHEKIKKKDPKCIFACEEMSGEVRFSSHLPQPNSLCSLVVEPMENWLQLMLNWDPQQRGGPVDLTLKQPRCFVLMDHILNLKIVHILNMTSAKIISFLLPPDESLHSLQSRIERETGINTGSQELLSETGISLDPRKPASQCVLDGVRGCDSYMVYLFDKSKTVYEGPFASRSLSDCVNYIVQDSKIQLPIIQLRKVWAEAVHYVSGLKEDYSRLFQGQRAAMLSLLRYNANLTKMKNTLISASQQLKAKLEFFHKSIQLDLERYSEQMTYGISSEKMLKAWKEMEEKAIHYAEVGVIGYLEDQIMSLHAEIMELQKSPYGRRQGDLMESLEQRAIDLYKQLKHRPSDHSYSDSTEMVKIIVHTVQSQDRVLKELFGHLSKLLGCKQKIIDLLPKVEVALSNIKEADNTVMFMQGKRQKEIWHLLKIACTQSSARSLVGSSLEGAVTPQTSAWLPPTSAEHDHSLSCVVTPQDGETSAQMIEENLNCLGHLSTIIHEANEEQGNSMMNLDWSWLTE
SIK2, sequence (Q9H0K1 whole entry): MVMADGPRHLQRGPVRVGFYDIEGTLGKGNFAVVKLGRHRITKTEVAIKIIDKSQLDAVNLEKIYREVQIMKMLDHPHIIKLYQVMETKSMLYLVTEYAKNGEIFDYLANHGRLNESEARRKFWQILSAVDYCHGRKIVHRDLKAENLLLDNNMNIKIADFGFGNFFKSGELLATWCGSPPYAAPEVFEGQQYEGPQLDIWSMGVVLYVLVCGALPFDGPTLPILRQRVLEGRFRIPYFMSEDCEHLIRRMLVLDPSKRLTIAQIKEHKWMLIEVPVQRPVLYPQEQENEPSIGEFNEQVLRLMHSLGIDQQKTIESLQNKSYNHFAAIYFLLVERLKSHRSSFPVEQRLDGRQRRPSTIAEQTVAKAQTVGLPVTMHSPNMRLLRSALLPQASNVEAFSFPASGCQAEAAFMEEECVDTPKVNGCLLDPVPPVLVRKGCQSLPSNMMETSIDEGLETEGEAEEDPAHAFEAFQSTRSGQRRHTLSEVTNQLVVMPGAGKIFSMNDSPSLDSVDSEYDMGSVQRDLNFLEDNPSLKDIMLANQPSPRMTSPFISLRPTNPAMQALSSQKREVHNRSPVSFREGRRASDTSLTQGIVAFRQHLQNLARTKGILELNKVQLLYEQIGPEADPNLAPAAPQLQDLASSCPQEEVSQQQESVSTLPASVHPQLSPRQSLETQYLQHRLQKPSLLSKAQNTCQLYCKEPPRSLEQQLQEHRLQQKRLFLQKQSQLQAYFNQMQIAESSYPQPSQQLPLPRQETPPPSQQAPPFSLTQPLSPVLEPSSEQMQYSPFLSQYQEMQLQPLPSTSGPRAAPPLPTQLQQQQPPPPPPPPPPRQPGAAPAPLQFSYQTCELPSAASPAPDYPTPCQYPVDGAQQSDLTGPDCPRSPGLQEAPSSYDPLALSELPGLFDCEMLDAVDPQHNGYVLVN

As to `C=C(C)[C@H]1CC=C(C)C(=O)C1` [S-carvone], the remaining binding at 100 µM on ADCK4 amounted to 92%; on ASK2 it was 100%; on AURKA, 81%; on CASK it was 83%; on CDK11, 98%; at CDK4-cyclinD3, 86%. For the same molecule, the remaining binding at 100 µM on CHEK2 was determined as 99%; on CSF1R-autoinhibited, 73%; at CSNK1G1 it was 100%; at DYRK1B, 100%; at ERK3, 73%; on GRK7, 75%. Further, the remaining binding at 100 µM on GSK3B turned out to be 82%; at IKK-alpha it was 72%; at NEK6, 84%; at PIM3, 72%; on SIK2 it was 76%; at SNARK, 81%. The remaining binding at 100 µM at SNRK turned out to be 75%; at TAK1 it was 79%; on TRPM6, 87%; on VRK2, 81%.
